Measured values: the NIST ThermoML archive (doi:10.1016/j.jct.2017.02.023)

Tests used:
[1] = xn = mol fraction of the nth substance listed; conditions: 81.5 kPa, Liquid, Vibrating tube method
[2] = refractive index (Na D-line) (dimensionless); xn = mol fraction of the nth substance listed; conditions: 81.5 kPa, Liquid, Standard Abbe refractometry

CNC1CCCCC1 [N-methylcyclohexylamine] + CCCC(C)O
Conditions	mass density, 298.15 K [kg/m3]	mass density, 308.15 K [kg/m3]	mass density, 318.15 K [kg/m3]	mass density, 328.15 K [kg/m3]	refractive index, 298.15 K	refractive index, 308.15 K	refractive index, 318.15 K	refractive index, 328.15 K
[1], x2 = 0	865.2	856.57	847.67	838.68	–	–	–	–
[1], x2 = 0.1044	861.35	852.83	844.04	835.12	–	–	–	–
[1], x2 = 0.2039	857.57	849.03	840.23	831.28	–	–	–	–
[1], x2 = 0.3	853.62	845.09	836.29	827.28	–	–	–	–
[1], x2 = 0.391	849.43	840.92	832.15	823.1	–	–	–	–
[1], x2 = 0.4776	844.86	836.35	827.59	818.52	–	–	–	–
[1], x2 = 0.5621	839.71	831.21	822.49	813.38	–	–	–	–
[1], x2 = 0.6395	834.44	825.96	817.29	808.15	–	–	–	–
[1], x2 = 0.7115	829.18	820.72	812.03	802.91	–	–	–	–
[1], x2 = 0.7926	822.85	814.43	805.84	796.73	–	–	–	–
[1], x2 = 0.8644	817.04	808.68	800.16	791.09	–	–	–	–
[1], x2 = 0.9338	811.24	802.9	794.42	785.33	–	–	–	–
[2], x2 = 0	–	–	–	–	1.45306	1.44812	1.4431	1.43809
[2], x2 = 0.1044	–	–	–	–	1.45003	1.44535	1.44061	1.4359
[2], x2 = 0.2039	–	–	–	–	1.44678	1.44217	1.43745	1.43273
[2], x2 = 0.3	–	–	–	–	1.44339	1.43884	1.43417	1.42945
[2], x2 = 0.391	–	–	–	–	1.43985	1.43539	1.43078	1.42612
[2], x2 = 0.4776	–	–	–	–	1.43608	1.43168	1.42715	1.42254
[2], x2 = 0.5621	–	–	–	–	1.43195	1.42759	1.42311	1.41857
[2], x2 = 0.6395	–	–	–	–	1.42779	1.42345	1.419	1.41449
[2], x2 = 0.7115	–	–	–	–	1.42361	1.41932	1.4149	1.41042
[2], x2 = 0.7926	–	–	–	–	1.41862	1.41442	1.41007	1.40562
[2], x2 = 0.8644	–	–	–	–	1.41398	1.40989	1.40561	1.40119
[2], x2 = 0.9338	–	–	–	–	1.40928	1.40524	1.40097	1.39653

CNC1CCCCC1 [N-methylcyclohexylamine] + CCCCCC(C)O
Conditions	mass density, 298.15 K [kg/m3]	mass density, 308.15 K [kg/m3]	mass density, 318.15 K [kg/m3]	mass density, 328.15 K [kg/m3]	refractive index, 298.15 K	refractive index, 308.15 K	refractive index, 318.15 K	refractive index, 328.15 K
[1], x2 = 0	865.2	856.57	847.67	838.68	–	–	–	–
[1], x2 = 0.0812	861.21	852.71	843.93	835.06	–	–	–	–
[1], x2 = 0.1624	857.38	848.98	840.27	831.44	–	–	–	–
[1], x2 = 0.2448	853.62	845.28	836.62	827.83	–	–	–	–
[1], x2 = 0.3273	849.83	841.57	832.96	824.22	–	–	–	–
[1], x2 = 0.4098	845.9	837.7	829.15	820.48	–	–	–	–
[1], x2 = 0.486	842.05	833.91	825.44	816.83	–	–	–	–
[1], x2 = 0.5764	837.18	829.14	820.75	812.23	–	–	–	–
[1], x2 = 0.6517	832.93	824.98	816.67	808.22	–	–	–	–
[1], x2 = 0.7435	827.66	819.81	811.59	803.21	–	–	–	–
[1], x2 = 0.8282	822.84	815.09	806.94	798.61	–	–	–	–
[1], x2 = 0.9132	818.13	810.46	802.36	794.07	–	–	–	–
[2], x2 = 0	–	–	–	–	1.45306	1.44812	1.4431	1.43809
[2], x2 = 0.0812	–	–	–	–	1.45091	1.44613	1.44128	1.43645
[2], x2 = 0.1624	–	–	–	–	1.44856	1.44387	1.4391	1.43432
[2], x2 = 0.2448	–	–	–	–	1.44622	1.44158	1.43686	1.43214
[2], x2 = 0.3273	–	–	–	–	1.44391	1.43933	1.43466	1.42997
[2], x2 = 0.4098	–	–	–	–	1.44151	1.43699	1.43236	1.42773
[2], x2 = 0.486	–	–	–	–	1.43911	1.43464	1.43007	1.4255
[2], x2 = 0.5764	–	–	–	–	1.43598	1.43158	1.42708	1.42258
[2], x2 = 0.6517	–	–	–	–	1.43316	1.42882	1.42438	1.41996
[2], x2 = 0.7435	–	–	–	–	1.42959	1.42534	1.421	1.41664
[2], x2 = 0.8282	–	–	–	–	1.42631	1.42213	1.41786	1.41356
[2], x2 = 0.9132	–	–	–	–	1.423	1.41886	1.41462	1.41037
